Test results: ChEMBL document CHEMBL4765288, “Synthesis of novel monocarbonyl curcuminoids, evaluation of their efficacy against MRSA, including ex vivo infection model and their mechanistic studies” (Eur J Med Chem, 2020)
In brackets after ≈: the same amount, converted by molar mass. Activity calls are given as the source filed them. The rule behind the calls is not given here. Positions of bridges follow the written chain, without caps; N, C: chain ends. Non-standard residues stand in square brackets, D forms with d. Residues, ends and D or L forms follow the SMILES beside them. *: point of attachment. X1 = CC[C@H](C)CCCCC(=O)*; Dab = NCC[C@H](N)C(=O)O

Experiments:
[1] = test system: Staphylococcus aureus; assay: Antibacterial activity against methicillin susceptible Staphylococcus aureus ATCC 29213 after 16 to 18 hrs by CLSI-based microbroth dilution method; type: functional; details: time 16-18 hrs
[2] = test system: Staphylococcus aureus; assay: Antibacterial activity against methicillin resistant Staphylococcus aureus ATCC 33591 after 16 to 18 hrs by CLSI-based microbroth dilution method; type: functional; details: time 16-18 hrs
[3] = test system: Staphylococcus aureus; assay: Antibacterial activity against methicillin resistant Staphylococcus aureus ATCC S-28 after 16 to 18 hrs by CLSI-based microbroth dilution method; type: functional; details: time 16-18 hrs
[4] = test system: Staphylococcus aureus; assay: Antibacterial activity against methicillin resistant Staphylococcus aureus S-30 after 16 to 18 hrs by CLSI-based microbroth dilution method; type: functional; details: time 16-18 hrs
[5] = test system: Staphylococcus aureus; assay: Antibacterial activity against methicillin resistant Staphylococcus aureus S-33 after 16 to 18 hrs by CLSI-based microbroth dilution method; type: functional; details: time 16-18 hrs
[6] = test system: Staphylococcus aureus; assay: Antibacterial activity against methicillin resistant Staphylococcus aureus S-34 after 16 to 18 hrs by CLSI-based microbroth dilution method; type: functional; details: time 16-18 hrs
[7] = test system: Staphylococcus aureus; assay: Antibacterial activity against methicillin resistant Staphylococcus aureus S-37 after 16 to 18 hrs by CLSI-based microbroth dilution method; type: functional; details: time 16-18 hrs
[8] = test system: Staphylococcus aureus; assay: Antibacterial activity against methicillin resistant Staphylococcus aureus S-41 after 16 to 18 hrs by CLSI-based microbroth dilution method; type: functional; details: time 16-18 hrs
[9] = test system: Escherichia coli; assay: Antibacterial activity against Escherichia coli ATCC 25922 after 16 to 18 hrs by CLSI-based microbroth dilution method; type: functional; details: time 16-18 hrs
[10] = test system: Escherichia coli; assay: Antibacterial activity against Escherichia coli ATCC 11775 after 16 to 18 hrs by CLSI-based microbroth dilution method; type: functional; details: time 16-18 hrs
[11] = test system: Escherichia coli; assay: Antibacterial activity against Escherichia coli E-52 after 16 to 18 hrs by CLSI-based microbroth dilution method; type: functional; details: time 16-18 hrs
[12] = test system: Escherichia coli; assay: Antibacterial activity against Escherichia coli E-59 after 16 to 18 hrs by CLSI-based microbroth dilution method; type: functional; details: time 16-18 hrs
[13] = test system: Escherichia coli; assay: Antibacterial activity against Escherichia coli E-74 after 16 to 18 hrs by CLSI-based microbroth dilution method; type: functional; details: time 16-18 hrs
[14] = Hemolytic activity in mouse RBC at 75 ug/ml after 1 hr by microplate reader analysis relative to control; type: ADME, cell-based, Erythrocyte; details: mouse red blood cells (erythrocytes), at 75 µg/mL, read-out: Activity
[15] = Hemolytic activity in mouse RBC at 150 ug/ml after 1 hr by microplate reader analysis relative to control; type: ADME, cell-based, Erythrocyte; details: mouse red blood cells (erythrocytes), at 150 µg/mL, read-out: Activity
[16] = Cytotoxicity against mouse 3T3 cells assessed as reduction in cell viability at 75 ug/ml after 4 hrs by MTT assay (reference value: 90.42 +/- 0.03%); type: cell-based; details: 3t3, 4 h, at 75 µg/mL
[17] = Cytotoxicity against mouse 3T3 cells assessed as reduction in cell viability at 150 ug/ml after 4 hrs by MTT assay (reference value: 90.42 +/- 0.03%); type: cell-based; details: at 150 µg/mL, read-out: Activity
[18] = test system: Cell membrane; assay: Induction of cytoplasmic membrane depolarization in methicillin resistant Staphylococcus aureus ATCC 33591 at 5 times MIC by [DiSC3(5)] probe based fluorescence assay relative to control; type: subcellular; details: time 2.0 hrs
[19] = test system: Cell membrane; assay: Induction of cytoplasmic membrane permeabilization in Staphylococcus aureus ATCC 33591 at 5 times MIC measured after 2 min using calcein-AM as substrate by dye based fluorescence assay relative to control; type: subcellular
[20] = test system: Cell membrane; assay: Induction of cell membrane damage in Staphylococcus aureus ATCC 33591 at 5 times MIC assessed as loss of cell viability measured after 2 hrs by confocal microscopy
[21] = test system: Cell membrane; assay: Induction of cell membrane damage in Staphylococcus aureus ATCC 33591 assessed as membrane surface perturbation with multiple dent and bleb formation at 5 times MIC after 4 hrs by scanning electron microscopy; type: subcellular
[22] = test system: Staphylococcus aureus; assay: Bactericidal activity against methicillin-resistant Staphylococcus aureus assessed as complete bacterial killing at 5 times MIC measured after 6 hrs by time-kill assay; type: functional, organism-based
[23] = test system: Cell membrane; assay: Induction of cytoplasmic membrane permeabilization in Staphylococcus aureus ATCC 33591 at 5 times MIC measured after 120 min using calcein-AM as substrate by dye based fluorescence assay relative to control; type: subcellular
[24] = test system: Staphylococcus aureus; assay: Antibacterial activity against methicillin susceptible Staphylococcus aureus ATCC 29213 infected in mouse 3T3 cells assessed as bacterial load at 5 times MIC after 16 hrs (reference value: 6.6 log CFU/ml); type: functional
[25] = test system: Staphylococcus aureus; assay: Bactericidal activity against methicillin-resistant Staphylococcus aureus assessed as in viable cells at 5 times MIC measured after 1 hr by time-kill assay; type: functional
[26] = test system: Staphylococcus aureus; assay: Bactericidal activity against methicillin-resistant Staphylococcus aureus assessed as reduction in viable count at 5 times MIC measured upto 4 hrs by time-kill assay; type: functional; details: time hrs <=4

| SMILES | MIC [1] | MIC [2] | MIC [3] | MIC [4] | MIC [5] | MIC [6] | MIC [7] | MIC [8] | MIC [9] | MIC [10] | MIC [11] | MIC [12] | MIC [13] | hemolysis at 1 h, 75 ug/ml [14] | hemolysis at 1 h, 150 ug/ml [15] | Activity [16] | viability at 4 h, 150 ug/ml [17] | Activity [18] | Activity [19] | Activity [20] | also measured |
| --- | --- | --- | --- | --- | --- | --- | --- | --- | --- | --- | --- | --- | --- | --- | --- | --- | --- | --- | --- | --- | --- |
| COc1cc(/C=C2\CC/C(=C\c3ccc(OCCCN4CCCCCC4)c(OC)c3)C2=O)ccc1OCCCN1CCCCCC1.Cl.Cl | 2 µg/mL | 4 µg/mL | 8 µg/mL | 8 µg/mL | 8 µg/mL | 8 µg/mL | 8 µg/mL | 8 µg/mL | 16 µg/mL | 16 µg/mL | 32 µg/mL | 32 µg/mL | 32 µg/mL | 6.19% | 9.32% | 7.03% | 14.8% | 95.7% | 80.6% | Active | Activity [21]: Active; Activity [22]: Active; Activity [23]: 93.2%; Activity [24]: 3.91 log10CFU/ml |
| COc1cc(/C=C/C(=O)CC(=O)/C=C/c2ccc(O)c(OC)c2)ccc1O [CURCUMIN] | > 256 µg/mL | > 256 µg/mL |  |  |  |  |  |  |  |  |  |  |  |  |  |  |  |  |  |  |  |
| CCOc1cc(/C=C2\CC/C(=C\c3ccc(OCCCN4CCCC(C)C4)c(OCC)c3)C2=O)ccc1OCCCN1CCCC(C)C1.Cl.Cl (stereo not given) | 2 µg/mL | 4 µg/mL | 8 µg/mL | 8 µg/mL | 8 µg/mL | 8 µg/mL | 8 µg/mL | 8 µg/mL | 8 µg/mL | 8 µg/mL | 16 µg/mL | 32 µg/mL | 32 µg/mL | 6.19% | 9.32% | 7.03% | 14.8% | 87% | 60.2% | Active | Activity [25]: -3.4 log10CFU/ml; Activity [21]: Active; Activity [23]: 92.7%; Activity [24]: 3.99 log10CFU/ml |
| CN[C@H](CC(C)C)C(=O)N[C@H]1C(=O)N[C@@H](CC(N)=O)C(=O)N[C@H]2C(=O)N[C@H]3C(=O)N[C@H](C(=O)N[C@H](C(=O)O)c4cc(O)cc(O)c4-c4cc3ccc4O)[C@H](O)c3ccc(c(Cl)c3)Oc3cc2cc(c3O[C@@H]2O[C@H](CO)[C@@H](O)[C@H](O)[C@H]2O[C@H]2C[C@](C)(N)[C@H](O)[C@H](C)O2)Oc2ccc(cc2Cl)[C@H]1O [VANCOMYCIN] |  |  |  |  |  |  |  |  | 64 µg/mL (≈ 44.2 µM) | 64 µg/mL (≈ 44.2 µM) | 128 µg/mL (≈ 88.3 µM) | 128 µg/mL (≈ 88.3 µM) | 128 µg/mL (≈ 88.3 µM) |  |  |  |  |  |  |  |  |
| COc1cc(/C=C2\CC/C(=C\c3ccc(OCCCCN4CCCCCC4)c(OC)c3)C2=O)ccc1OCCCCN1CCCCCC1.Cl.Cl | 2 µg/mL | 4 µg/mL | 8 µg/mL | 8 µg/mL | 8 µg/mL | 16 µg/mL | 16 µg/mL | 8 µg/mL | 16 µg/mL | 16 µg/mL | 32 µg/mL | 32 µg/mL | 32 µg/mL | 6.19% | 9.32% | 7.03% | 14.8% | 90.7% | 69.7% | Active | Activity [21]: Active; Activity [23]: 89%; Activity [24]: 3.23 log10CFU/ml |
| Cl.Cl.O=C1/C(=C/c2ccc(OCCCCN3CCCCCC3)cc2)CC/C1=C\c1ccc(OCCCCN2CCCCCC2)cc1 | 4 µg/mL | 4 µg/mL | 4 µg/mL | 4 µg/mL | 8 µg/mL | 8 µg/mL | 8 µg/mL | 8 µg/mL | 16 µg/mL | 16 µg/mL | 16 µg/mL | 32 µg/mL | 32 µg/mL | 6.19% | 9.32% | 7.03% | 14.8% | 95.7% | 76.6% | Active | Activity [21]: Active; Activity [26]: 4.3 log10CFU/ml; Activity [23]: 90.3%; Activity [24]: 3 log10CFU/ml |
| CC[C@H](C)CCCCC(=O)N[C@@H](CCN)C(=O)N[C@H](C(=O)N[C@@H](CCN)C(=O)N[C@H]1CCNC(=O)[C@H]([C@@H](C)O)NC(=O)[C@H](CCN)NC(=O)[C@H](CCN)NC(=O)[C@H](CC(C)C)NC(=O)[C@@H](Cc2ccccc2)NC(=O)[C@H](CCN)NC1=O)[C@@H](C)O (X1-[Dab]T[Dab][Dab][Dab][dF]L[Dab][Dab]T; lactam 4-C) |  |  |  |  |  |  |  |  | 0.5 µg/mL (≈ 0.415 µM) | 0.5 µg/mL (≈ 0.415 µM) | 1 µg/mL (≈ 0.831 µM) | 1 µg/mL (≈ 0.831 µM) | 1 µg/mL (≈ 0.831 µM) |  |  |  |  |  |  |  |  |
| Cc1onc(-c2ccccc2)c1C(=O)N[C@@H]1C(=O)N2[C@@H]1SC(C)(C)[C@@H]2C(=O)O [OXACILLIN] | 0.5 µg/mL (≈ 1.25 µM) | 64 µg/mL (≈ 159 µM) | 128 µg/mL (≈ 319 µM) | 128 µg/mL (≈ 319 µM) | 128 µg/mL (≈ 319 µM) | 128 µg/mL (≈ 319 µM) | 128 µg/mL (≈ 319 µM) | 128 µg/mL (≈ 319 µM) |  |  |  |  |  |  |  |  |  |  |  |  |  |
